Here are results for 17 compounds from patent EP0297610A1, “N-[(2,6-disubstituted)phenyl]-urea and carbamate inhibitors of acyl-CoA:cholesterol acyl-transferase” (WARNER-LAMBERT COMPANY, priority 1987, dated 1989).

For experiment [1], the target named is acyl-CoA:cholesterol acyltransferase (ACAT). Nature of the experiment: In vitro ACAT inhibition: formation of radiolabeled cholesterol oleate from radiolabeled oleic acid in rabbit intestinal microsomes. The conditions noted are these: tissue preparation containing rabbit intestinal microsomes, read-out: IC₅₀. Format: biochemical.
Excerpt: The test assesses the ability of a test compound to inhibit the acylation of cholesterol by oleic acid by measuring the amount of radiolabeled cholesterol oleate formed from radiolabeled oleic acid in a tissue preparation containing rabbit intestinal microsomes.
The next experiment concerns male Sprague-Dawley rats. Nature of the experiment: In vivo screen PCC: total blood cholesterol in cholesterol-fed rats. The conditions noted are these: one week; for % Change: change of total blood cholesterol vs control (181 mg/dl), 0.05% test drug in diet, rats; for Total Blood Cholesterol: male Sprague-Dawley rats, 0.05% test drug admixed into diet with 5.5% peanut oil, 1.5% cholesterol, 0.3%-0.5% cholic acid, Control = 181. An excerpt: In an in vivo screen, designated PCC, male Sprague-Dawley rats (approximately 200 g body weight) are randomly divided into groups and provided ad libidum a regular chow diet (Purina No. 5002, Ralston Purina Co., 711 West Fuesser Road, Mascoutah, Illinois, 62224, USA), supplemented with 5.5% peanut oil, 1.5% choles-terol, and 0.3%-0.5% cholic acid, together with 0.05% of the test drug which is admixed into the diet. After one week the animals are etherized and a blood sample is taken from the heart and mixed with 0.14% ethylene-diamine tetraacetic acid (EDTA) to measure the total cholesterol.

Consider `CCCCCCCC/C=C\CCCCCCCCNC(=O)Nc1c(C)cccc1Cl` [Example 5, (Z)-N-(2-Chloro-6-methylphenyl)-N′-9-octadecenylurea], for which the IC50 in experiment [1] came to 180 nM.
On to `CCCCCCCCCCNC(=O)Nc1c(C)cccc1C(C)(C)C` [Example 18, N-Decyl-N′-[2-(1,1-dimethylethyl)-6-methylphenyl]urea], for which the IC50 in experiment [1] came out at 200 nM.
The same measure, in the same setting: the same measure for `CCCCCCCCCCC1(NC(=O)Nc2c(CC)cccc2CC)CCCC1` [Example 21, N-(1-Decylcyclopentyl)-N′-(2.6-diethylphenyl)urea]: 100 nM.
The same measure, in the same setting: the same measure for `CCCCCCCCCCC(C)(C)NC(=O)Nc1c(C(C)C)cccc1C(C)C` [Example 20, N-[2.6-bis(1-Methylethyl)phenyl]-N′-(1,1-dimethylundecyl)urea]: 45 nM; for `CCCCCCCCCCNC(=O)Nc1c(C)cccc1C(C)C` [Example 17, N-Decyl-N′-[2-methyl-6-(l-methylethyl)-phenyl]urea.]: 210 nM.
On the same count and under the same terms, then `CCCCCCCCCCCCCCNC(=O)Nc1c(C)cccc1Cl` [Example 7, N-(2-Chloro-6-methylphenyl)-N′-tetradecylurea], with 27 nM; and `CCCCCCCCCCCCCCNC(=S)Nc1c(CC)cccc1CC` [Example 12, N-(2,6-Diethylphenyl)-N′-tetradecylthiourea], with 420 nM.
On to `CCCCCCCC/C=C\CCCCCCCCNC(=S)Nc1c(C)cccc1C` [Example 3, (Z)-N-(2,6-Dimethylphenyl)-N′-9-octadecenylthiourea], for which, in experiment [1], the IC50 stood at 10000 nM.
Take `CCCCCCCCCCCCCCCCCCNC(=O)Nc1c(C(C)C)cccc1C(C)C` [Example 11, N-[2,6-bis(1-Methylethyl)phenyl]-N′-octadecylurea]: in experiment [1], the IC50 came out at 48 nM.
The same measure, in the same setting: the same measure for `CCCCCCCCCCNC(=O)Nc1c(C(C)C)cccc1C(C)C` [Example 15, N-[2,6-bis(1-Methylethyl)phenyl]-N′-decylurea]: 56 nM.
Take `CCCCCCCC/C=C\CCCCCCCCNC(=O)Nc1c(CC)cccc1C(C)C` [Example 2, (Z)-N-[2-Ethyl-6-(1-methylethyl)-phenyl]-N′-9-octadecenylurea]: in experiment [1], the IC50 was 37 nM. Moreover, in the experiment on male Sprague-Dawley rats, the “% Change” value is given as -41% and the “Total Blood Cholesterol” value is on record as 107 (Control = 181) mg/dl.
Regarding `CCCCCCCCCCCCCCNC(=O)Nc1c(CC)cccc1CC` [Example 8, N-(2,6-Diethylphenyl)-N′-tetra-decylurea], in experiment [1], the IC50 was determined as 21 nM.
For the compound `CCCCCCCCCCC(C)(C)NC(=O)Nc1c(CC)cccc1CC` [Example 19, N-(2,6-Diethylphenyl)-N′-(1.1-dimethylundecyl)urea], the IC50 in experiment [1] came to 52 nM. Also, in the experiment with male Sprague-Dawley rats, the “% Change” value is given as -60% and the “Total Blood Cholesterol” value is 73 (Control = 181) mg/dl.
Consider `CCCCCCCC/C=C\CCCCCCCCNC(=O)Nc1c(Cl)cccc1Cl` [Example 6, (Z)-N-(2,6-Dichlorophenyl)-N′-9-octadecenylurea], for which the IC50 in experiment [1] came to 400 nM.
With `CCCCCCCCCCCCCCNC(=O)Nc1c(CC)cccc1C(C)C` [Example 1, N-[2-Ethyl-6-(1-methylethyl)-phenyl]-N′-tetradecylurea], in experiment [1], the IC50 is 19 nM. Also, in the experiment on male Sprague-Dawley rats, the “% Change” value is -41% and the “Total Blood Cholesterol” value was 106 (Control = 181) mg/dl.
Turning to `CCCCCCCC/C=C\CCCCCCCCNC(=O)Nc1c(C)cccc1C` [Example 4, (Z)-N-(2,6-Dimethylphenyl)-N′-9-octadecenylurea], in experiment [1], the IC50 came to 160 nM.
On the same count and under the same terms, the same measure for `CCCCCCCCCCCCCCCCCCNC(=O)Nc1c(C)cccc1Cl` [Example 10, N-(2-Chloro-6-methylphenyl)-N′-octadecylurea]: 1100 nM.
